# Measurements reported in publication PMC10223284, “Category-Based Toxicokinetic Evaluations of Data-Poor Per- and Polyfluoroalkyl Substances (PFAS) using Gas Chromatography Coupled with Mass Spectrometry” (Toxics, 2023).
# “And” between values parts separate entries of the source, which are not always exact repeats. Equal entries are not always repeated.
# Legend:
# [1] = Abiotic loss in negative controls of the hepatocyte clearance assay (cell-free media, metabolically inactivated hepatocytes); type: in vitro ADME; settings: flag for stability failure in hepatocyte clearance assay controls (1 or Fst = fail, 0 = pass)
# Method: The hepatic metabolic stability assay measures the loss of a parent compound over time in a substrate-depletion approach. Briefly, hepatocyte suspensions, after a viability assessment, were diluted in complete William’s medium E (containing dexamethasone and cell maintenance cocktail B) prior to addition to 96-well polypropylene plates containing an equal volume of media spiked with the test compound (1 μM assay concentration; assay cell density = 50,000 cells/100 μL) and maintained at 37 °C with shaking. At each time point, relevant plates were crashed with an equal volume of ice-cold acetonitrile, centrifuged, and supernatant transferred to a new plate prior to storage at <−70 °C until quantitative analysis. Controls, run in parallel, included cell-free (i.e., media only) and metabolically inactivated hepatocytes to evaluate abiotic chemical stability in the aqueous media matrix with and without cellular protein. In preliminary runs, these controls were run at T0 and T240 only. If significant instability was noted, the hepatocyte clearance assay was rerun, including cell-free samples at each time point and metabolically inactivated hepatocytes at selected time points.
# Negative controls, including media only and metabolically inactivated hepatocyte controls, were included to monitor abiotic loss (i.e., background clearance) during the assay. Where significant compound loss occurred using the analysis described above, background clearance rates were calculated and used to background-adjust hepatic metabolic clearance rates. Where chemicals were cleared prior to the end of the analysis, at 240 min (T240), the corresponding negative control timepoint was used for background subtraction. Any chemicals displaying a 50% or more abiotic loss at T120 were deemed unstable and were excluded from further analyses.
# human plasma [2] = assay: Chemical stability in plasma over the UC assay time course (T5hr/T1hr); settings: for % remaining_PPB: chemical remaining in plasma over the PPB assay time course, NS = no significant loss; for PPB_Stab_Fail: flag for stability failure in the plasma protein binding assay (1 = fail, 0 = pass); for Time 1 hr / Time 1 hr, Run-specific Avg: amount measured in plasma sample at 1 hr; for Time 1 hr / Time 5 hr: replicates A, B, C; for Time 1 hr / Time 1 hr, Run-specific Avg / Time 5 hr / Time 5 hr, Run-specific Avg: unit not given; for Time 1 hr, Run-specific Avg / Time 5 hr, Run-specific Avg: run average; for Time 5 hr / Time 5 hr, Run-specific Avg: amount measured in plasma sample at 5 hr; for Fstable.Med: median fraction stable in plasma, UC assay Level4; for Stability (T5hr/ T1hr), replicates A, B, C: single replicate of one UC run
# human plasma [3] = assay: Ultracentrifugation (UC) plasma protein binding assay, fraction unbound in plasma (fup); settings: for Aqueous Fraction / Aqueous Fraction, Run-specific Avg: amount measured in aqueous fraction after ultracentrifugation, unit not given; for Aqueous Fraction: replicates A, B, C; for Aqueous Fraction, Run-specific Avg: run average; for Fup.Med: median fraction unbound in plasma; for Fup.Med / Fup.point: UC assay Level4; for Fup.point: point estimate of fraction unbound in plasma; for Mean fu: fraction unbound in human plasma, ultracentrifugation, some values based on eLOQ; for Mean Fu: mean fraction unbound over all replicates and runs, UC assay, human plasma; for Fraction Unbound (fu), replicates A, B, C: single replicate of one UC run (aqueous fraction / Time 5 hr)
# [4] = mean T5hr/T1hr ratio in plasma over all replicates/runs
# [5] = average of one UC run (run date in line above)
# [6] = mean T5hr/T1hr ratio over all replicates and runs, plasma
Compound,Hep_Stab_Fail [1],% remaining_PPB (human plasma [2]),PPB_Stab_Fail (human plasma [2]),Fstable.Med (human plasma [2]),Fup.Med (human plasma [3]),Fup.point (human plasma [3]),Mean fu (human plasma [3]),also measured
"C=CC(=O)OCC(F)(F)C(F)(F)C(F)(F)C(F)(F)C(F)(F)C(F)(F)C(F)(F)F [1H,1H-Perfluorooctyl acrylate]",1,6%,1,,,,,
OCC(F)(F)C(F)(F)C(F)(F)C(F)(F)C(F)(F)C(F)(F)F [6:1 Fluorotelomer alcohol],1,,0,0.204,0.0187,0.0386,,"Time 1 hr (human plasma [2]): 10923.7 and 9182.55 and 11162.4; Time 1 hr, Run-specific Avg (human plasma [2]): 10422.90; Time 5 hr (human plasma [2]): 5789.66 and 11336.8 and 10690.6; Time 5 hr, Run-specific Avg (human plasma [2]): 8563.21; Stability (T5hr/ T1hr), Run-specific Avg (human plasma [2]; average of one UC run): 0.822; Mean Stability (human plasma [2]; [4]): 0.907; Aqueous Fraction (human plasma [3]): 212.981 and 210.941 and 147.734; Aqueous Fraction, Run-specific Avg (human plasma [3]): 190.55; Fraction Unbound (fu), Run-specific Avg (human plasma [3]; average of one UC run): 0.0231"
"OCC(F)(F)C(F)(F)C(F)(F)C(F)F [1H,1H,5H-Perfluoropentanol]",1,,0,1,0.791,0.355,0.3616,"Stability (T5hr/ T1hr), Run-specific Avg (human plasma [2]; [5]): 0.858; Mean Stability (human plasma [2]; [6]): 0.855; Stability (T5hr/ T1hr), replicates A, B, C (human plasma [2]): 0.775 and 0.902 and 0.887; Fraction Unbound (fu), Run-specific Avg (human plasma [3]; [5]): 0.36; Mean Fu (human plasma [3]): 0.362; Fraction Unbound (fu), replicates A, B, C (human plasma [3]): 0.445 and 0.315 and 0.324"
"C=CC(=O)OCC(F)(F)C(F)(F)C(F)(F)COC(=O)C=C [1H,1H,5H,5H-Perfluoro-1,5-pentanediol diacrylate]",1,0%,1,0.00466,7.62E-09,0.177,,
OCCCCC(F)(F)C(F)(F)C(F)(F)C(F)(F)F [4:4 Fluorotelomer alcohol],1,100%,0,0.181,0.0608,0.0704,0.0640,"Time 1 hr (human plasma [2]): 11379.4 and 9453.92 and 9594.35; Time 1 hr, Run-specific Avg (human plasma [2]): 10142.56; Time 5 hr (human plasma [2]): 9012.64 and 8012.91 and 8571.88; Time 5 hr, Run-specific Avg (human plasma [2]): 8512.77; Stability (T5hr/ T1hr), Run-specific Avg (human plasma [2]; average of one UC run): 0.839; Mean Stability (human plasma [2]; [4]): 0.850; Aqueous Fraction (human plasma [3]): 460.145 and 470.255 and 706.065; Aqueous Fraction, Run-specific Avg (human plasma [3]): 545.49; Fraction Unbound (fu), Run-specific Avg (human plasma [3]; average of one UC run): 0.064"
"FC(F)(F)C(F)(F)C(F)(F)CC1CO1 (stereo not shown) [1H,1H-Heptafluorobutyl epoxide]",1,0%,1,,,,,
C=CC(=O)OCC(F)(F)C(F)(F)C(F)(F)C(F)(F)COC(=O)C=C [DTXSID80379721],1,0%,1,,,,,
OCC(F)(F)OC(F)(F)C(F)(F)OC(F)(F)C(F)(F)OC(F)(F)F [Fluorinated triethylene glycol monomethyl ether],1,0%,1,,,,,
OCC(F)(F)C(F)(F)C(F)(F)C(F)(F)C(F)(F)C(F)F,1,,0,0.222,0.0526,0.0549,0.0537,"Stability (T5hr/ T1hr), Run-specific Avg (human plasma [2]; [5]): 0.870; Mean Stability (human plasma [2]; [6]): 0.875; Stability (T5hr/ T1hr), replicates A, B, C (human plasma [2]): 0.819 and 1.002 and 0.803; Mean Fu (human plasma [3]): 0.054; Fraction Unbound (fu), replicates A, B, C (human plasma [3]): 0.052 and 0.046 and 0.064"
CC(C)(C)C(=O)CC(=O)C(F)(F)C(F)(F)C(F)(F)F [(Heptafluorobutanoyl)pivaloylmethane],1,,,,,,,
"FC(F)(F)C(F)(F)C(F)(F)C(F)(F)CCI [1H,1H,2H,2H-Perfluorohexyl iodide]",1,,0,0.99,0.0824,0.0905,0.0980,"Time 1 hr (human plasma [2]): 4814.29 and 5234.67 and 5102.52; Time 1 hr, Run-specific Avg (human plasma [2]): 5050.49; Time 5 hr (human plasma [2]): 2541.5 and 2572.68 and 2719.11; Time 5 hr, Run-specific Avg (human plasma [2]): 2557.09; Stability (T5hr/ T1hr), Run-specific Avg (human plasma [2]; average of one UC run): 0.506; Stability (T5hr/ T1hr), Run-specific Avg (human plasma [2]; [5]): 0.871; Mean Stability (human plasma [2]; [4]): 0.517; Mean Stability (human plasma [2]; [6]): 0.928; Stability (T5hr/ T1hr), replicates A, B, C (human plasma [2]): 1.126 and 0.894 and 0.765; Aqueous Fraction (human plasma [3]): 429.404 and 197.254 and 248.159; Aqueous Fraction, Run-specific Avg (human plasma [3]): 291.61; Fraction Unbound (fu), Run-specific Avg (human plasma [3]; [5]): 0.10; Fraction Unbound (fu), replicates A, B, C (human plasma [3]): 0.08012 and 0.1098 and 0.1042"
"C=CC(=O)OCC(F)(F)C(F)(F)C(F)(F)C(F)(F)C(F)(F)C(F)(F)C(F)(F)C(F)F [1H,1H,9H-Perfluorononyl acrylate]",1,0%,1,0.000116,2.02E-08,0.315,,
CN(C(=O)C(F)(F)C(F)(F)C(F)(F)F)[Si](C)(C)C [N-Methyl-N-trimethylsilylheptafluorobutyramide],1,,0,0.274,0.532,0.545,0.5451,"Stability (T5hr/ T1hr), Run-specific Avg (human plasma [2]; [5]): 0.935; Mean Stability (human plasma [2]; [6]): 0.935; Stability (T5hr/ T1hr), replicates A, B, C (human plasma [2]): 0.978 and 0.906 and 0.921; Fraction Unbound (fu), Run-specific Avg (human plasma [3]; [5]): 0.55; Mean Fu (human plasma [3]): 0.545; Fraction Unbound (fu), replicates A, B, C (human plasma [3]): 0.507 and 0.525 and 0.603"
OCCCC(F)(F)C(F)(F)C(F)(F)C(F)(F)C(F)(F)C(F)(F)C(F)(F)F [7:3 Fluorotelomer alcohol],1,,0,,,,0.0230,
C=CC(=O)OCCC(F)(F)C(F)(F)C(F)(F)C(F)(F)F [2-(Perfluorobutyl)ethyl acrylate],1,0%,1,0.000485,2.26E-06,0.078,,
OCCC(F)(F)C(F)(F)C(F)(F)C(F)(F)C(F)(F)C(F)(F)F [6:2 Fluorotelomer alcohol],1,100%,0,0.205,0.232,0.152,,"Time 1 hr (human plasma [2]): 10242.5 and 11181.9 and 10094.7; Time 1 hr, Run-specific Avg (human plasma [2]): 10506.38; Time 5 hr (human plasma [2]): 8145.88 and 10628.7 and 9411.26; Time 5 hr, Run-specific Avg (human plasma [2]): 9387.28; Stability (T5hr/ T1hr), Run-specific Avg (human plasma [2]; average of one UC run): 0.893; Mean Stability (human plasma [2]; [4]): 0.895; Aqueous Fraction (human plasma [3]): 219.897 and 3328.34 and 176.612; Aqueous Fraction, Run-specific Avg (human plasma [3]): 1241.62; Fraction Unbound (fu), Run-specific Avg (human plasma [3]; average of one UC run): 0.0229"
CC(O)C(F)(F)C(F)(F)F (stereo not shown) [DTXSID70880134],1,0%,1,,,,,
CO[Si](C)(CCC(F)(F)C(F)(F)C(F)(F)C(F)(F)C(F)(F)C(F)(F)F)OC [DTXSID40235137],1,0%,1,,,,,
